Patent US8541373B2, “BChE albumin fusions for the treatment of cocaine abuse” (priority 2009, dated 2013)

Assays:
cocaine = test: AlbuBChE PK/PD analysis, direct inhibitory effect Emax model (cocaine concentration at 5 min); conditions: Squirrel monkeys, cocaine at 5 min, approximate estimate
Description: In spite of the limited amount of data, an attempt was made to characterize PK/PD relationship. The computer software WinNonlin Professional (Version 4.0.1 Pharsight Corporation, USA) was used. Specifically the direct Inhibitory Effect Emax model was use in which Emax was assumed at AlbuBChE concentration of zero. The model equation can be described as follows: E=Emax*(1−(C/(C+EC50)))
The PD parameter used in the analysis was cocaine plasma concentration at 5 min post-cocaine dose. PK parameters used in the model were AlbuBChE plasma concentrations at 2, 72 and 96 hr post-AlbuBChE dose. Due to the fact that AlbuBChE concentration was not measured at 2 hr post-AlbuBChE dose, the 1st time sample collected was used in the analysis (24 hr post-AlbuBChE dose) with the assumptions that AlbuBChE concentration at 24 hr post AlbuBChE dose may reflect AlbuBChE concentration at 2 hr post AlbuBChE dose.

[1] = Animal observations in PK/PD study
[2] = Cardiovascular and respiratory safety pharmacology of AlbuBChE alone (telemetry); conditions: 15 mg/kg IM
Description: Prior to the start of the study, the monkeys were surgically instrumented with telemetry transmitters and vascular access ports. The following CV parameters were monitored: systolic pressure, diastolic pressure, mean arterial blood pressure, mean heart rate and mean rate-pressure product. Body temperatures changes were also monitored.
Study Group 1 (3 males and 3 females), served as a control group for testing the effect of AlbuBChE alone compared to its vehicle. Monkeys were administered (IM) with the control article AlbuBChE formulation buffer on Study Days (SDs) 1 and 4. Three hours post formulation buffer administration respiratory and cardiovascular (CV) parameters were recorded, respectively.
A single IM dose of the test article (AlbuBChE at 15 mg/kg) was administered on SD 8 and 11. Three hours after AlbuBChE dosing (corresponding to Tmax of AlbuBChE) CV and respiratory parameters were monitored, respectively.
The physiological responses to test article administration, including blood pressure, heart rate, body temperature, and the electrocardiograph (ECG), were monitored.

[3] = system: cocaine self-administration; test: Cocaine self-administration; assay type: in vivo, squirrel monkeys (Saimiri sciureus)
From the text: Adult male squirrel monkeys (Saimiri sciureus) weighing 0.8 to 1.2 kg were used as subjects. All monkeys were individually housed in a humidity and temperature controlled room and had free access to water. The monkeys were fed following any experimental procedures an amount of food (Lab Diet 5045, PMI Nutrition International, Richmond, Ind.; Banana Softies, Bio-Serv, Frenchtown, N.J.) determined to maintain a stable weight. Fresh fruit, vegetables and environmental enrichment were also provided daily. The animal care facilities were fully accredited by AAALAC and all experiments were approved by the NIDA Intramural Research Program Animal Care and Use Committee.
Three monkeys were trained to self-administer 30 μg/kg/inj i.v. cocaine. Details of the self-administration training procedure can be found elsewhere (Justinova et al., 2003). In brief, the monkeys were placed in a seated position in a Plexiglas restraint chair. The chair was enclosed in a larger acoustical chamber. On the front wall of the restraint chair there was a response lever and stimulus lights. A green light signaled the beginning of the session. The monkeys were trained to make 10 responses (fixed-ratio, FR, 10) to receive an i.v. injection of cocaine. The injection of cocaine was accompanied by the green light, turning off and a yellow stimulus light being presented for 2 sec. Following each cocaine injection there was also a 60-sec timeout. At the end of the timeout, the green light was turned on. Sessions lasted for 1 hour. Occasionally, saline was substituted for cocaine. Following the establishment of stable cocaine self-administration and reliable extinction of responding following saline substitution, AlbuBChE (5 mg/kg, i.m.) or its vehicle (i.m.) were given 2 hours prior to a self-administration session. Self-administration responding was then measured for 5 consecutive days. Following each drug test or saline substitution, responding for 30 μg/kg/inj cocaine was reestablished for at least 5 days. Following reinstatement testing (see below), the dose of cocaine available for self-administration was lowered to 10 μg/kg/inj and the effect of AlbuBChE (5 mg/kg, i.m.) was again determined.
The blood level data were analyzed separately for each metabolite and time point (5 or 30 min). […] The self-administration data were analyzed separately for response rate or injections following either vehicle treatment or AlbuBChE treatment. Control data were included in the analysis by taking the average of the last 3 days for the immediately preceding baseline condition. A within subjects ANOVA was then performed with follow-up tests contrasting days following vehicle or AlbuBChE with the control. For the reinstatement tests, a two-way ANOVA was performed for both response rate and injections, with time post vehicle or AlbuBChE as the within-subjects factor and pretreatment (vehicle or AlbuBChE) as the between subjects factor. Follow-up contrast compared vehicle and AlbuBChE at each time point.

[4] = 5 mg/kg i.m., 30 μg/kg/inj cocaine, tracked 5 days

Substance: AlbuBChE
- AlbuBChE serum concentration that may result in 50% decrease in cocaine concentration (EC50) (cocaine): ~400 ng/mL
- Cocaine-related observations (hyperactivity, increased respiratory rate with abdominal breathing) ([1]; pre-treatment 0.2 to 5 mg/kg, cocaine 1 mg/kg): not observed for five days
- Clinical or cageside observations associated with AlbuBChE ([1]; single IM 0.2, 1 or 5 mg/kg): no clinical or cageside observations
- Deaths during the study ([1]; single IM 0.2, 1 or 5 mg/kg): no deaths
- Tolerability ([1]; single IM dose of 0.2, 1 or 5 mg/kg): well tolerated
- Changes in recorded CV parameters and body temperature vs formulation buffer [2]: did not produce any significant changes
- Survival ([2]; with or without cocaine): All animals survived
- Duration of effect on cocaine self-administration ([3]; 30 μg/kg/inj cocaine, reduced effectiveness): ≥ 3 days
- Cocaine self-administration ([3]; 5 mg/kg i.m., 30 μg/kg/inj cocaine): reduced self-administration
- Self-administration injections vs baseline [3, 4]: significantly different from control on day 1 and 4
- Self-administration response rate vs baseline [3, 4]: different from control on days 1-4
- Self-administration response rate and injections ([3]; 5 mg/kg, 10 μg/kg/inj cocaine, 2 hrs following AlbuBChE): failed to reach significance
